# Source: patent US20100227907A1, “Method of Treating Pain by Using Opioids and CAMKIV Inhibitors” (priority 2005, published 2010)
# Tests used:
# [1] = test system: CREB activity in HEK293 cells expressing CaMKIV; test: Ionomycin stimulation of CREB activity (luciferase reporter) in HEK293 cells expressing CaMKIV; assay type: cell-based; details: 5 μM ionomycin, n=4 wells, p<0.0001
# Experimental: (§1) HEK293 cells were seeded into 96-well plates. The next day, cells were cotransfected with the CaMKIV construct, pGL3-CRE-firefly luciferase and pGL3-CMV-Renilla luciferase constructs using Lipofectamine 2000 reagent (Invitrogen, CA) according to the manufacturer's recommendation. The following day, cells were treated with fresh medium containing DMSO as vehicle control or 5 μM ionomycin (Sigma, Mo.) in the presence or absence of KN62 or KN93 (Sigma, MO) at serial concentrations. Cells were harvested 16 h later. Luciferase activity was assayed with cell lysis by using the dual-luciferase reporter assay system (Promega, WI) according to the manufacturer's protocol.
# The dose-dependent inhibitory effect of KN62 and KN93 on CaMKIV transiently expressed in HEK293 cells was determined. CaMKIV can activate CREB and stimulate CREB-mediated transcription through the direct phosphorylation of CREB on Ser-133. To measure the CaMKIV activity by CREB activity assay, the CaMKIV expression plasmids and a CREB luciferase reporter system were cotransfected into HEK293 cells in this study. The calcium ionophore ionomycin treatment can lead to an increase in intracellular Ca^2+ and Ca^2+/CaM levels, which influence CaMKIV activity in cells. Ionomycin (5 μM) can dramatically increase CREB activity in HEK293 cells expressing CaMKIV. […]
# [2] = target: T1, CaMKIV transiently expressed in HEK293 cells (Homo sapiens, UniProt Q16566); test: CREB luciferase reporter assay of CaMKIV activity in ionomycin-treated HEK293 cells transiently expressing CaMKIV; assay type: cell-based; details: 5 μM ionomycin, n=4 wells; for CREB activity, % of the control level: HEK293 expressing CaMKIV; for IC50: HEK293 transiently expressing CaMKIV, read-out: IC50 for inhibition of CaMKIV (CREB activity)
# T1 construct: expressed in transfected cells; host or cells: HEK293
# T1 sequence (Q16566 1-473): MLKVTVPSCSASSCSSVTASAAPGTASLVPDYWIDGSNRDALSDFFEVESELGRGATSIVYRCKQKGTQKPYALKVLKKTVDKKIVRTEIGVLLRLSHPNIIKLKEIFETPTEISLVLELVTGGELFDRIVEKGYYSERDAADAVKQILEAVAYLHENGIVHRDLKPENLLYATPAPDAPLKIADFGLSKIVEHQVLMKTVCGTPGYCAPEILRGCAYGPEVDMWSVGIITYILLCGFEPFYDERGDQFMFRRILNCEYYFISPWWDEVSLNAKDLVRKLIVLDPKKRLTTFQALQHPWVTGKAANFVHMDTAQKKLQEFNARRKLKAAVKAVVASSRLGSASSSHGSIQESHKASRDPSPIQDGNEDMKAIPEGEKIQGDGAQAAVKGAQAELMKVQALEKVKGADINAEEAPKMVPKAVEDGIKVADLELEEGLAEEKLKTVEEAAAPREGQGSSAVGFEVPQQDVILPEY
# Experimental: as §1
# The dose-dependent inhibitory effect of KN62 and KN93 on CaMKIV transiently expressed in HEK293 cells was determined. CaMKIV can activate CREB and stimulate CREB-mediated transcription through the direct phosphorylation of CREB on Ser-133. To measure the CaMKIV activity by CREB activity assay, the CaMKIV expression plasmids and a CREB luciferase reporter system were cotransfected into HEK293 cells in this study. The calcium ionophore ionomycin treatment can lead to an increase in intracellular Ca^2+ and Ca^2+/CaM levels, which influence CaMKIV activity in cells. Ionomycin (5 μM) can dramatically increase CREB activity in HEK293 cells expressing CaMKIV. The CREB activity is 5.5±0.2 times that of unstimulated cells (p<0.0001, compared to the unstimulated cells, n=4 wells, FIG. 8A).
# [3] = test system: substantia gelatiosa (SG) neurons in lamina II of the dorsal horn; test: Whole-cell patch clamp recording of sIPSCs in spinal cord slices; assay type: cell-based, mouse
# Experimental: Postnatal mice (12-19 days old) were anesthetized with 1-2% halothane and the thoracic and lumbar spinal cord were dissected out and put into pre-equilibrated artificial cerebrospinal solution fluid (ACSF) at 1-4° C. The spinal cord was placed into the shallow groove of an agar block, and several drops of 20% gelatin were placed on the low-thoracic and high-lumbar segment to half-embed the spinal cord. The agar block, together with the half-embedded spinal cord, was glued on the stage of a vibratome with cyanoacrylate adhesive, and was immersed in the ice-cold ACSF. Then, transverse slices of the lumber spinal cord (350 μm) were prepared. Slices were transferred to a room temperature submerged recovery chamber with oxygenated (95% O2 and 5% CO2) solution containing (in mM): NaCl, 124; NaHCO3, 25; KCl, 4.4; KH2PO4, 1; CaCl2, 2; MgSO4, 2; glucose, 10. After one hr recovery, slices were placed in a recording chamber on the stage of an Axioskop 2FS microscope (Zeiss) equipped with infrared DIC optics for patch clamp recordings. Substantia gelatiosa (SG) could be identified as a translucent band capping the dorsal part of the gray matter under the microscope. Spontaneous inhibitory postsynaptic currents (sIPSCs) were recorded with an Axon 200B amplifier (Axon Instruments, CA). Recording electrodes (3-5 MΩ) contained a pipette solution composed of (in mM): Cs-gluconate, 120; NaCl, 5; MgCl2 1; EGTA, 0.5; Mg-ATP, 2; Na3GTP, 0.1; HEPES, 10; pH 7.2; 280-300 mOsmol. Access resistance was 15-30 MΩ and was monitored throughout the experiment. Data were discarded if access resistance changed more than 15% during an experiment. The membrane potential was held at […] throughout the experiment. A holding potential of +10 mV was used to record spontaneous inhibitory postsynaptic currents (sIPSCs).
# [4] = test system: pCREB in lamina I-II of the dorsal horn; test: pCREB immunostaining in spinal cord after chronic morphine; assay type: in vivo, mouse; details: chronic morphine vs saline; both CaMKIV KO and wild-type mice; p<0.001
# Experimental: Spinal cord slices at the lumbar region were prepared using standard histological methods. Slices were incubated with rabbit anti-pCREB IgG (1:250) (Calbiochem) or rabbit anti-MOR IgG (1:500) (ImmunoStar Incorporated) at 4° C. overnight. Followed by donkey anti-rabbit IgG conjugated with Alexa 488 (1:500) (Molecular Probes) for one hour at room temperature. Measurements were made from at least three randomly selected non-contiguous sections in each mouse (3-4 mice per treatment group), observed from coded slides and averaged so that each animal has a mean value for regional immunoreactivity. The total number and density of positive cells were measured in dorsal horn layers I-II and ventral horn layers VI-IX. All data were expressed as a ratio between cell number or density and unit area. Images were obtained with an Olympus microscope. Data were analyzed with ImagePro software (Media-Cybrenetics,).
# [5] = test system: pCREB expression in the spinal cord; test: pCREB expression in spinal cord after chronic morphine (western blot); assay type: in vivo, mouse; details: chronic morphine 10 mg/kg s.c. daily for seven days
# Experimental: Open field locomotor activity was recorded for 1 hr after injection followed by determination of hot plate and tail flick response latencies.
# Spinal cords were dounce-homogenized (18 strokes) in 10 volumes of 10 mM Tris-Cl (pH 7.4), 320 mM Sucrose, and 1% SDS. The tissue homogenates were centrifuged at 21,000×g at 4° C. for 5 min. Equal amounts of protein from tissue samples were separated by 4-12% gradient SDS-PAGE (Invitrogen), followed by Western blotting with anti-MOR-1 (1:1000), anti-pCREB (1:1000) (Santa Cruz Biotechnology) or anti-phosphoserine antibody (for immunoprecipitated samples, 1:1000) (Sigma) followed by revelation with ECL (Amersham). Membranes (BioTrace PVDF, Pall Co.) were routinely stripped and re-probed with a monoclonal antibody for actin (1:5000, Sigma) blotting to ensure equal protein loading.
# mouse CaMKIV = test: siRNA knock-down of CaMKIV expression in cultured cortical neurons (western blot); assay type: cell-based; details: 30 nM siRNA, 48 h after transfection, n=3 experiments
# Experimental: Cortical neurons were prepared from postnatal day 0 (P0) mice. All procedures were reviewed and approved by the Institutional Animal Care and Use Committee at University of Toronto, in accordance with the guidelines of the Canadian Council on Animal Care. The Cerebral cortexes were dissected, minced, and trypsinized for 15 min using 0.125% trypsin (Invitrogen, CA). Cells were seeded at the density of 4˜5×10^5 cells/cm^2 onto 60 mm dishes or 96-well plates precoated with 50 μg/ml poly-D-lysine (Sigma, Mo.) in water, and grown in Neurobasal-A medium (Invitrogen, CA) supplemented with B27 and GlutaMax (Invitrogen, CA). The cultures were incubated at 37° C. in 95% air, 5% carbon dioxide with 95% humidity.
# sequence 1: sense 5′-[…]tt-3′, antisense 5′-[…]tt-3′ and sequence 2: sense 5′-[…]tt-3′, antisense 5′-[…]tt-3′, respectively (Ambion, Tex.). The annealed siRNA was reconstituted at the concentration of 100 μM for transfection. […] Cells were harvested and analyzed 48 h after transfection.
# The cultured cortical neurons were harvested and homogenized in lysis buffer containing proteinase inhibitor cocktail (Sigma, Mo.). Protein was quantified by Bradford assay, and electrophoresis of equal amounts of total protein was performed on SDS-polyacrylamide gels. […] The density of immunoblots was measured using NIH ImageJ software.
compound,measurement,setting,value
"C[C@H](CCC(=O)O)C[C@H](C)C[C@H](C)C(=O)/C=C(\O)[C@H](C)C[C@H](C)C/C=C/[C@@H](C)[C@@H](O)[C@@H](C)[C@@H](O)C[C@@H]1CC[C@@](C)([C@H]2CC[C@@](C)([C@@H](C)O)O2)O1 [Ionomycin, ionomycin]","CREB activity, times that of unstimulated cells",[1],5.5±0.2 times
"CN([C@@H](Cc1ccc(OS(=O)(=O)c2cccc3cnccc23)cc1)C(=O)N1CCN(c2ccccc2)CC1)S(=O)(=O)c1cccc2cnccc12 [KN62, 4-[(25)-2-[(5-isoquinolinylsulfonyl)methylamino]-3-oxo-3-(4-phrenyl-1-piperazinyl)propyl]phenyl isoquinolinesulfonic acid ester]","CREB activity, % of the control level",[2]; 0.01 μM inhibitor,98.4±0.8%
same,"CREB activity, % of the control level",[2]; 0.1 μM inhibitor,85.3±1.2%
same,"CREB activity, % of the control level",[2]; 1.0 μM inhibitor,55.5±2.5%
same,"CREB activity, % of the control level",[2]; 10 μM inhibitor,11.5±2.6%
same,"CREB activity, % of the control level",[2]; 50 μM inhibitor,1.3±2.9%
same,"CREB activity, % of the control level",[2]; 100 μM inhibitor,1.2±1.4%
same,IC50,[2],1060 nM
"COc1ccc(S(=O)(=O)N(CCO)c2ccccc2CN(C)CC=Cc2ccc(Cl)cc2)cc1 [KN93, N-[2-[[[3-(4-Chlorophenyl)-2-propenyl]methylamino]methyl]phenyl]-N-(2-hydroxyethyl)-4-methoxybenzenesulphonamide]","CREB activity, % of the control level",[2]; 0.01 μM inhibitor,93.1±0.9%
same,"CREB activity, % of the control level",[2]; 0.1 μM inhibitor,77.7±2.5%
same,"CREB activity, % of the control level",[2]; 1.0 μM inhibitor,40.8±2.7%
same,"CREB activity, % of the control level",[2]; 10 μM inhibitor,5.3±1.5%
same,"CREB activity, % of the control level",[2]; 50 μM inhibitor,1.3±0.7%
same,"CREB activity, % of the control level",[2]; 100 μM inhibitor,1.1±0.9%
same,IC50,[2],580 nM
CN1CC[C@]23c4c5ccc(O)c4O[C@H]2[C@@H](O)C=C[C@H]3[C@H]1C5 [morphine],decrease of the frequency of sIPSCs,"[3]; acutely applied morphine, CaMKIV KO mice, n=6",66.2±4.0%
same,decrease of the frequency of sIPSCs,"[3]; acutely applied morphine, WT mice, n=7",68.9±10.4%
same,decrease of the frequency of sIPSCs,"[3]; slices pre-incubated in morphine at least 1 hour, CaMKIV KO mice, n=9",55.7±6.9%
same,decrease of sIPSCs (in words),"[3]; slices pre-incubated in morphine at least 1 hour, WT mice, n=8, p>0.05",did not decrease
same,pCREB in layer I and II of the dorsal horn (immunostaining),[4],significantly increased
same,pCREB expression in spinal cord (western blot),[5]; CaMKIV KO mice,absent
same,pCREB expression in spinal cord (western blot),"[5]; WT mice, p<0.001",significantly increased
"sequence 1: siRNA for mouse CaMKIV: sense 5′-GCAUGAUAUGCACUAAUAGtt-3′, antisense 5′-CUAUUAGUGCAUAUCAUGCtt-3′ (sense GCAUGAUAUGCACUAAUAGTT; antisense CUAUUAGUGCAUAUCAUGCTT; chemistry not given here)","expression level of CaMKIV, % of the control",mouse CaMKIV,50.6±5.9%
"sequence 2: siRNA for mouse CaMKIV: sense 5′-CGGCUGACUACAUUUCAAGtt-3′, antisense 5′-CUUGAAAUGUAGUCAGCCGtt-3′ (sense CGGCUGACUACAUUUCAAGTT; antisense CUUGAAAUGUAGUCAGCCGTT; chemistry not given here)",knock down of the expression of CaMKIV (in words),mouse CaMKIV,could not knock down
